Test system: G. oxydans 2-ketoreductase
Test: Reduction of alkylketones with extract of E. coli expressing recombinant 2-ketoreductase, analysed by gas chromatography
Format: biochemical, Gluconobacter oxydans
Details: NAD+/formate/formate dehydrogenase, 28° C., 16 hr; for % Conversion: 2 mg 2-ketone, 0.5 ml E. coli pBMS2000-KR extract, ketone to 2-alcohol
Method: Analysis of enantiomeric alcohols by gas chromatography: Samples were extracted in ethyl acetate and dried over anhydrous magnesium sulfate. Samples were then applied onto a Astec Chiraldex G-TA, gamma cyclodextrin column (20 m×0.25 mm×0.125 μm thickness; Astec, Whippany, N.J.) equipped with a guard column (Hewlett-Packard Ultra II, 5% phenyl methyl silicone, 5 m×0.32 mm×0.17 μm thickness; Agilent Technologies, Palo Alto, Calif.). The temperature of the injector was set at 150° C. and the detector of the chromatograph (Hewlett-Packard 5890) was set at 200° C. Detection was carried out with a flame ionization detector (Agilent Technologies). The separation was carried out by a gradient under the following conditions: 28° C. for 15 minutes, 5° C./min to 50° C. and hold 5 minutes. The helium flow rate was maintained at 22 cm/min. Under these conditions, the retention times for S-2-pentanol, R-2-pentanol, and 2-pentanone were 10.85, 11.67 and 17.84 minutes respectively.
The reaction contained 0.18 mg NAD+, 30 mg sodium formate, 0.3 units formate dehydrogenase (Sigma, St. Louis, Mo.), 2 mg 2-pentanone, and 0.5 ml of extract from an E. coli (BL21(DE3)) culture containing the pBMS2000-KR plasmid and expressing the ketoreductase. Alternatively, P. pastoris formate dehydrogenase (see S. Goldberg et al.: U.S. Provisional Patent Application Ser. No. 60/341,934 filed Dec. 19, 2001; U.S. Provisional Application Ser. No. 60/375,530 filed Apr. 25, 2002; and U.S. patent application Ser. No. 10/320,300; the contents of which are hereby incorporated by reference in their entirety) can be substituted for the commercial formate dehydrogenase. Cell extracts were obtained as follows: 2 g recombinant cells was suspended in 10 ml Buffer A (50 mM Tris-HCl, pH 7.5, 1 mM CaCl2, and 1 mM MgCl2). The resuspended cells were sonicated for 2 min (20 sec pulse “on” and 30 sec pulse “off”) using Model 550 Sonic Dismembrator (Misonix Inc., Farmingdale, N.Y.). The resulting mixture was centrifuged for 15 min at 8000 rpm at 4° C. The supernatant was removed and used for reduction reactions. The reactions were carried out in a culture tube at 28° C. with shaking at 200 rpm. After 16 hr, samples were quenched with 2 ml of ethyl acetate and analyzed by gas chromatography (described earlier).
The reactions contained 0.18 mg NAD+, 30 mg sodium formate, 0.3 units formate dehydrogenase (purchased from Sigma), 2 mg 2-ketones, and 0.5 ml of extract from the E. coli culture containing the pBMS2000-KR plasmid and expressing the ketoreductase (described above). The reactions were carried out in a culture tube at 28° C. on a shaker at 200 rpm. The end of 16 hr, samples were quenched with 2 ml of ethyl acetate and analyzed by gas chromatography (described earlier).

With `CCCCCC(C)=O` [2-Heptanone] as the molecule, how does the “% Conversion” value read?
Its value is >98%.

With `CCCCCCC(C)=O` [2-Octanone] as the molecule, how does the “% Conversion” value read?
Its value is >98%.

`CCCCCCCCC(C)=O` [2-Decanone] was tested. Which “% Conversion” value did it give?
Its value is >98%.

Which “reduction of the substrate to 2-pentanol using recombinant enzyme” value (2 mg substrate, 0.5 ml E. coli BL21(DE3) pBMS2000-KR extract) does the source give for `CCCC(C)=O` [2-pentanone] here?
Its value is “complete reduction”.

Source: patent US6929935B2, “Gluconobacter oxydans 2-ketoreductase enzyme and applications thereof” (Bristol-Myers Squibb Company, priority 2001, dated 2005)
